Changes are numbered by the printed parent chain. “Also recorded” adds a separate entry of the source.
Columns and labels:
[1] = tested on: prostate glands of mice; test: Prostate weight in treated male mice; format: in vivo; settings: 5 times per week for four weeks, BiC 100 mg/kg PO, PP 1 mg/kg IP, or the combination
Experimental: FIG. 7. […] As a positive control, nine mice were treated with castration for four weeks. Prostate glands were harvested and wet weights determined. […] Error bars represent the standard error of the mean (S.E.M.).
Animals were treated 5 times per week for four weeks. At the end of the study period, animals were sacrificed and prostate tissue weighed. After weighing, the tissue was divided in half for pathological and genetic studies. […] (FIG. 7).

[2] = tested on: endogenous AR-regulated gene expression, LNCaP cells; test: qRT-PCR of androgen-responsive genes in LNCaP cells; format: cell-based, human; settings: No DHT = 1, 3 nM DHT alone or with 1 uM BIC, 100 nM PP or 100 nM HH
Experimental: (§1) LAPC4 and LNCaP cells were grown in the presence or absence of 3 nM DHT in charcoal-stripped media, with or without the inhibitors. RNA was harvested using an RNAeasy kit (Qiagen) and reverse transcribed (MMLV-RT, Invitrogen). Real-time PCR was carried out on a 7300 Real Time PCR System (Applied Biosystems) using SYBR green as the detecting dye and Rox as the reference dye. The androgen responsive genes kalikrein 3, or PSA (KLK3) [Cleutjens, K. B., et al., Two androgen response regions cooperate in steroid hormone regulated activity of the prostate-specific antigen promoter. J Biol Chem, 1996. 271(11): p. 6379-88; Nelson, P. S., et al., The program of androgen-responsive genes in neoplastic prostate epithelium. Proc Natl Acad Sci USA, 2002. 99(18): p. 11890-5), metalloproteinase 16 (MMP16) (Nelson, P. S., et al., The program of androgen-responsive genes in neoplastic prostate epithelium. Proc Natl Acad Sci USA, 2002. 99(18): p. 11890-5), transmembrane protease serine 2 (TMPRSS2) (Nelson, P. S., et al., The program of androgen-responsive genes in neoplastic prostate epithelium. Proc Natl Acad Sci USA, 2002. 99(18): p. 11890-5; […] Vaarala, M. H., et al., Expression of transmembrane serine protease TMPRSS2 in mouse and human tissues. J Pathol, 2001. 193(1): p. 134-40), FK506-binding immunophilin 51 (FKBP51) (Nelson, P. S., et al., The program of androgen-responsive genes in neoplastic prostate epithelium. Proc Natl Acad Sci USA, 2002. 99(18): p. 11890-5; Amler, L. C., et al., Dysregulated expression of androgen-responsive and nonresponsive genes in the androgen-independent prostate cancer xenograft model CWR22-R1. Cancer Res, 2000. 60(21): p. 6134-41; Velasco, A. M., et al., Identification and validation of novel androgen-regulated genes in prostate cancer. Endocrinology, 2004. 145(8): p. 3913-24; Magee, J. A., et al., Direct, androgen receptor-mediated regulation of the FKBP5 gene via a distal enhancer element. Endocrinology, 2006. 147(1): p. 590-8), G-protein coupled receptor RDC1 homolog, or chemokine orphan receptor 1 (RDC-1) (Nelson, P. S., et al., The program of androgen-responsive genes in neoplastic prostate epithelium. Proc Natl Acad Sci USA, 2002. 99(18): p. 11890-5), NK homeobox family member 3 (Nk×3.1) (Nelson, P. S., et al., The program of androgen-responsive genes in neoplastic prostate epithelium. Proc Natl Acad Sci USA, 2002. 99(18): p. 11890-5; Bieberich, C. J., et al., Prostate-specific and androgen-dependent expression of a novel homeobox gene. J Biol Chem, 1996. 271(50): p. 31779-82; […]) were all normalized to the transcription of the housekeeping ribosomal gene (RPL19). All samples were done in triplicate and separately normalized.

[3] = tested on: endogenous AR-regulated gene expression, LAPC4 cells; test: qRT-PCR of androgen-responsive genes in LAPC4 cells; format: cell-based, human; settings: No DHT = 1, 3 nM DHT alone or with 1 uM BIC, 100 nM PP or 100 nM HH
Experimental: as §1

[4] = target: T1, endogenous AR with a mutation (T877A), LNCaP cells (Homo sapiens, UniProt P10275, T878A); test: PSA-luciferase reporter assay in LNCaP cells with DHT; format: cell-based; settings: for IC50: LNCaP cells, 3 nM DHT
T1 construct: that each express endogenous AR; endogenous in cells; host or cells: LNCaP
T1 sequence (P10275 1-920 T878A): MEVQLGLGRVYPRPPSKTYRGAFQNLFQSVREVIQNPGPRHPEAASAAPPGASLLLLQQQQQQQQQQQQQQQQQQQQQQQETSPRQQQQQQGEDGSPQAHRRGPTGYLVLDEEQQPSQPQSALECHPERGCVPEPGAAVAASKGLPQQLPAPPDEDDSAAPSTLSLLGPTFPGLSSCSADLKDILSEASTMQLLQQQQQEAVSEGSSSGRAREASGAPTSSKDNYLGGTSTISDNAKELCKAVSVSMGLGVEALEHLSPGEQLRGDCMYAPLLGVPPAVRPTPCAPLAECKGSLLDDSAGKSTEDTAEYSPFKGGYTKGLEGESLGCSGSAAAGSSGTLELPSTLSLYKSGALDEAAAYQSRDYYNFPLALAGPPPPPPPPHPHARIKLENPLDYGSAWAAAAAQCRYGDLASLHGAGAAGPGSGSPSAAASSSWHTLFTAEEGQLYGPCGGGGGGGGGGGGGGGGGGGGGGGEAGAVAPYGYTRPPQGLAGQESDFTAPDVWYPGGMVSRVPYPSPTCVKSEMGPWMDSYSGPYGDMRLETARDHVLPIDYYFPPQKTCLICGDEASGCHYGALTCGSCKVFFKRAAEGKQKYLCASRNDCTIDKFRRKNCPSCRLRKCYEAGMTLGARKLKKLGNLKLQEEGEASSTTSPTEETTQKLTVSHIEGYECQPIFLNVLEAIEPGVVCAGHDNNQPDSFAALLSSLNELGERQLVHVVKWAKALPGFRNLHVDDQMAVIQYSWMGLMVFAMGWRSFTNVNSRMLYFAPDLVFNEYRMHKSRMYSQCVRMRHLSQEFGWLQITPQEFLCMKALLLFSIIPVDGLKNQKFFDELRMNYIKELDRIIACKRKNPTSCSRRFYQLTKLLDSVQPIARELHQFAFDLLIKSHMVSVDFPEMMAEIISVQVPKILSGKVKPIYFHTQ
Experimental: (§2) Cells were transfected with two reporter plasmids, a PSA-luciferase construct (androgen responsive), and an SV40-renilla luciferase construct as an internal control. The following day, the cells were split and drugs added in the presence of 3 nM DHT. Luciferase production was measured the following day (Dual luciferase assay kit, Promega).
(§3) Synergism can be defined as a combination index of less than one, using the non-exclusive assumption described by Chou et al. (Chou, T. C. and P. Talalay, Quantitative analysis of dose-effect relationships: the combined effects of multiple drugs or enzyme inhibitors. Adv Enzyme Regul, 1984. 22: p. 27-55).

[5] = target: T2, endogenous wild-type AR, LAPC4 cells (Homo sapiens, UniProt P10275); test: PSA-luciferase reporter assay in LAPC4 cells with DHT; format: cell-based; settings: 3 nM DHT
T2 construct: that each express endogenous AR; endogenous in cells; host or cells: LAPC4
T2 sequence (P10275 1-920): T1 sequence (P10275 1-920 T878A) with A878T
Experimental: as §2, §3

[6] = tested on: LNCaP cells; test: Cell proliferation (DNA content, DAPI), LNCaP; format: cell-based, human; settings: 3 nM DHT, seven days, PP 100 nM, HH 100 nM, BiC 1 μM
Excerpt: (§4) LN-AR cells were created by retroviral infection of a high-expressing AR vector into LNCaP cells, and proliferate independent of androgen in cell culture, unlike their parental line (Chen, C. D., et al., Molecular determinants of resistance to antiandrogen therapy. Nat Med, 2004. 10(1): p. 33-9). HEK293 cells were used as a control. Cells were transferred to charcoal-stripped media two days before they were split and plated in quadruplicate at a density of approximately 20,000 cells/well in 48-well plates. […] Media were changed every day, using a single preparation to ensure consistent compound concentrations. Proliferation was determined by measuring the DNA content of the cells in each well. Each day, the cells in four wells were fixed in 100% cold methanol, followed by staining for 5 min at RT with 0.2 ng/mL 4′,6-diamidino-2-phenylindole (DAPI) in PBS. The cells were washed once in PBS, then read on a fluorescence plate reader using 365/439 excitation/emission wavelengths. LAPC4 and LNCaP cells proliferated to a much greater degree in the presence of DHT, while LN-AR cells proliferated in the presence and absence of DHT.

[7] = tested on: LN-AR cells; test: Cell proliferation (DNA content, DAPI), LN-AR; format: cell-based, human; settings: seven days, PP 100 nM, HH 100 nM, BiC 1 μM
Excerpt: as §4

[8] = tested on: LAPC4 cells; test: Cell proliferation (DNA content, DAPI), LAPC4; format: cell-based, human; settings: LAPC4, 3 nM DHT, seven days; PP 100 nM, HH 100 nM, BiC 1 μM
Excerpt: as §4

[9] = tested on: HEK293 cells; test: Cell proliferation (DNA content, DAPI), HEK293 control; format: cell-based; settings: HEK293, seven days; PP 100 nM, HH 100 nM, BiC 1 μM
Excerpt: as §4

In the case of `CC(O)(CS(=O)(=O)c1ccc(F)cc1)C(=O)Nc1ccc(C#N)c(C(F)(F)F)c1` (stereo not drawn) [BiC, bicalutamide], the “Reduction of prostate weight” value [1] is reported as 35%.

`C[C@]12CCC(=O)C[C@@H]1CC[C@@H]1[C@@H]2CC[C@]2(C)[C@@H](O)CC[C@@H]12` [DHT, dihydrotestosterone] was tested, and the “FKBP51 transcription (normalized to RPL19)” value [2] was 2.15, the “KLK3 transcription (normalized to RPL19)” value [2] was 1.89 and the “MMP16 transcription (normalized to RPL19), androgen-repressed gene” value [2] was 0.61. The “Nkx3.1 transcription (normalized to RPL19)” value [2] was 2.00, the “RDC1 transcription (normalized to RPL19), androgen-repressed gene” value [2] was 0.66 and the “TMPRSS2 transcription (normalized to RPL19)” value [2] was 3.70. The “FKBP51 transcription (normalized to RPL19)” value [3] was 21.4, the “KLK3 transcription (normalized to RPL19)” value [3] was 1.97 and the “MMP16 transcription (normalized to RPL19), androgen-repressed gene” value [3] was 0.71. The “Nkx3.1 transcription (normalized to RPL19)” value [3] was 1.08, the “RDC1 transcription (normalized to RPL19), androgen-repressed gene” value [3] was 0.63 and the “TMPRSS2 transcription (normalized to RPL19)” value [3] was 1.13.

Work on `O=c1ccc2cc(O[C@@H]3O[C@H](CO)[C@@H](O)[C@H](O)[C@H]3O)c(O)cc2o1` [Esculin] yielded an IC50 [4] of 62200 nM and an IC50 [5] of 831 nM.

In the case of `COc1ccc2c3c([nH]c2c1)C(C)=NCC3` [Harmaline], the IC50 [4] is reported as 1190 nM.

Work on `COc1ccc2c(c1)[nH]c1c(C)nccc12` [Harmine] yielded an IC50 [4] of 1560 nM and an IC50 [5] of 80 nM.

`CC(C)(O)C(=O)Nc1ccc([N+](=O)[O-])c(C(F)(F)F)c1` [OH-F, hydroxy-flutamide, reference compound] was tested, and the “Mode of antagonism: effect on DHT dose-response of PSA-luciferase” value ([4]; LNCaP, DHT titrated, moderate dose of each inhibitor) was “DHT overcame the inhibitory effect; also recorded: consistent with a competitive antagonist”.

For `Cc1cc(/C=C/c2ccc3cc(N(C)C)ccc3[n+]2C)c(C)n1-c1ccccc1` [PP, pyrvinium pamoate], the “Inhibition of cell growth” value [6] was “able to inhibit the growth of all four cell lines; also recorded: exhibited growth-inhibitory properties”, the “Reduction of prostate weight” value [1] was “did not produce a statistically significant effect; also recorded: did not significantly reduce prostate size” and the “Inhibition of androgen-independent cell growth” value [7] was “able to inhibit the growth of all four cell lines; also recorded: blocked growth”. For the same compound, the “Inhibition of cell growth” value [8] was “able to inhibit the growth of all four cell lines” and the “Non-specific growth inhibition of control cells” value [9] was “Neither compound exhibited non-specific growth inhibition”.

In the case of `COc1cc2ccc(=O)oc2cc1O` [Scopoletin], the IC50 [4] is reported as 604000 nM and the IC50 [5] is reported as 1380 nM.

Compound Harman has an IC50 [4] of 380 nM.
